The supplement of paper PMC11208160

Experiment: recombinant UMI read abundance after kanamycin selection (control-corrected) (log10(CPM+1)); higher = more efficient recombination; extreme values may be limits of the assay; sequences stand for … in AGTGCAGAGAAAATCGGCCAGTTTTCTCTGCCTGCAGTCCGCATGCCGTGGGACCCCTTGGGTTCTAACCTGTTGCCTAGATTTATGCAGCGGACTGCCTTTCTCCCAAAGTGATAAACCGG…AGGTTGGTTTCACT; site = the 11-nt donor
In short: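 Counts of recombinant UMIs were reported as log10(CPM+1). Before that, they were converted to CPM, averaged over replicates and scaled using control-derived factors. They came from PCR across the donor–target junction after Escherichia coli carrying the pair library and target plasmid was plated on IPTG (0.07 mM) plus kanamycin, or unselected, in two replicates each.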
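Further: IS621 bridge recombinase in Escherichia coli cells against a fixed T5 target plasmid.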

| Sequence | recombinant UMI read abundance (log10) |
| --- | --- |
| CGGAATCCATGGACCGGTTTTCCCGGTAATCCGTATTTGTT (site AGGAATCCTAG) | 0 |
| CGGAATCCATGGACCGGTTTTCCCGGTAATCCGTATTTGTT (site AGGAATCCTTA) | 0 |
| CGGAATCCATGGACCGGTTTTCCCGGTAATCCGTATTTGTT (site AGGAATTCTAA) | 0 |
| CGGAATCCATGGACCGGTTTTCCCGGTAATCCGTATTTGTT (site AGGATTCCTAA) | 0 |
| CGGAATCCATGGACCGGTTTTCCCGGTAATCCGTATTTGTT (site AGGGATCCTAA) | 0.0088 |
| CGGAATCCATGGACCGGTTTTCCCGGTAATCCGTATTTGTT (site CAGAAGCCTAA) | 0.0058 |
| CGGAATCCATGGACCGGTTTTCCCGGTAATCCGTATTTGTT (site CAGAATACTAA) | 0 |
| CGGAATCCATGGACCGGTTTTCCCGGTAATCCGTATTTGTT (site CAGAATCCTAA) | 0 |
| CGGAATCCATGGACCGGTTTTCCCGGTAATCCGTATTTGTT (site CAGAATCCTAT) | 0 |
| CGGAATCCATGGACCGGTTTTCCCGGTAATCCGTATTTGTT (site CAGAATCCTGA) | 0 |
| CGGAATCCATGGACCGGTTTTCCCGGTAATCCGTATTTGTT (site CAGAGTCCTAA) | 0.0165 |
| CGGAATCCATGGACCGGTTTTCCCGGTAATCCGTATTTGTT (site CAGTATCCTAA) | 0.0125 |
| CGGAATCCATGGACCGGTTTTCCCGGTAATCCGTATTTGTT (site CATAATCCTAA) | 0 |
| CGGAATCCATGGACCGGTTTTCCCGGTAATCCGTATTTGTT (site CCAAATCCTAA) | 0 |
| CGGAATCCATGGACCGGTTTTCCCGGTAATCCGTATTTGTT (site CCGAAACCTAA) | 0.0076 |
| CGGAATCCATGGACCGGTTTTCCCGGTAATCCGTATTTGTT (site CCGAATCCTAA) | 0.00308 |
| CGGAATCCATGGACCGGTTTTCCCGGTAATCCGTATTTGTT (site CCGAATCCTAG) | 0 |
| CGGAATCCATGGACCGGTTTTCCCGGTAATCCGTATTTGTT (site CCGAATCCTTA) | 0 |
| CGGAATCCATGGACCGGTTTTCCCGGTAATCCGTATTTGTT (site CCGAATTCTAA) | 0 |

| Sequence | recombinant UMI read abundance (log10) |
| --- | --- |
| CGGAATCCATGGACCGGTTTTCCCGGTAATCCGTATTTGTT (site CCGATTCCTAA) | 0.00402 |
| CGGAATCCATGGACCGGTTTTCCCGGTAATCCGTATTTGTT (site CCGGATCCTAA) | 0 |
| CGGAATCCATGGACCGGTTTTCCCGGTAATCCGTATTTGTT (site CGAAAACCTAA) | 0 |
| CGGAATCCATGGACCGGTTTTCCCGGTAATCCGTATTTGTT (site CGAAATCCTAA) | 0 |
| CGGAATCCATGGACCGGTTTTCCCGGTAATCCGTATTTGTT (site CGAAATCCTAG) | 0 |
| CGGAATCCATGGACCGGTTTTCCCGGTAATCCGTATTTGTT (site CGAAATCCTTA) | 0.014 |
| CGGAATCCATGGACCGGTTTTCCCGGTAATCCGTATTTGTT (site CGAAATTCTAA) | 0 |
| CGGAATCCATGGACCGGTTTTCCCGGTAATCCGTATTTGTT (site CGAATTCCTAA) | 0 |
| CGGAATCCATGGACCGGTTTTCCCGGTAATCCGTATTTGTT (site CGAGATCCTAA) | 0 |
| CGGAATCCATGGACCGGTTTTCCCGGTAATCCGTATTTGTT (site CGCAACCCTAA) | 0.00816 |
| CGGAATCCATGGACCGGTTTTCCCGGTAATCCGTATTTGTT (site CGCAATCCTAA) | 0.00384 |
| CGGAATCCATGGACCGGTTTTCCCGGTAATCCGTATTTGTT (site CGCAATCCTAC) | 0 |
| CGGAATCCATGGACCGGTTTTCCCGGTAATCCGTATTTGTT (site CGCAATCCTCA) | 0.00634 |
| CGGAATCCATGGACCGGTTTTCCCGGTAATCCGTATTTGTT (site CGCAATGCTAA) | 0.00802 |
| CGGAATCCATGGACCGGTTTTCCCGGTAATCCGTATTTGTT (site CGCACTCCTAA) | 0.0157 |
| CGGAATCCATGGACCGGTTTTCCCGGTAATCCGTATTTGTT (site CGCCATCCTAA) | 0 |
| CGGAATCCATGGACCGGTTTTCCCGGTAATCCGTATTTGTT (site CGGAAACCTAA) | 1.09 |
| CGGAATCCATGGACCGGTTTTCCCGGTAATCCGTATTTGTT (site CGGAAACCTAG) | 0.112 |
| CGGAATCCATGGACCGGTTTTCCCGGTAATCCGTATTTGTT (site CGGAAACCTTA) | 0 |

| Sequence | recombinant UMI read abundance (log10) |
| --- | --- |
| CGGAATCCATGGACCGGTTTTCCCGGTAATCCGTATTTGTT (site CGGAAATCTAA) | 0 |
| CGGAATCCATGGACCGGTTTTCCCGGTAATCCGTATTTGTT (site CGGAACCCTAA) | 0.157 |
| CGGAATCCATGGACCGGTTTTCCCGGTAATCCGTATTTGTT (site CGGAACCCTAC) | 0.00563 |
| CGGAATCCATGGACCGGTTTTCCCGGTAATCCGTATTTGTT (site CGGAACCCTCA) | 0.0146 |
| CGGAATCCATGGACCGGTTTTCCCGGTAATCCGTATTTGTT (site CGGAACGCTAA) | 0.00389 |
| CGGAATCCATGGACCGGTTTTCCCGGTAATCCGTATTTGTT (site CGGAAGACTAA) | 0 |
| CGGAATCCATGGACCGGTTTTCCCGGTAATCCGTATTTGTT (site CGGAAGCCTAA) | 0.0104 |
| CGGAATCCATGGACCGGTTTTCCCGGTAATCCGTATTTGTT (site CGGAAGCCTAT) | 0.00319 |
| CGGAATCCATGGACCGGTTTTCCCGGTAATCCGTATTTGTT (site CGGAAGCCTGA) | 0 |
| CGGAATCCATGGACCGGTTTTCCCGGTAATCCGTATTTGTT (site CGGAATACTAA) | 0 |
| CGGAATCCATGGACCGGTTTTCCCGGTAATCCGTATTTGTT (site CGGAATACTAT) | 0 |
| CGGAATCCATGGACCGGTTTTCCCGGTAATCCGTATTTGTT (site CGGAATACTGA) | 0 |
| CGGAATCCATGGACCGGTTTTCCCGGTAATCCGTATTTGTT (site CGGAATCCTAA) | 1.19 |
| CGGAATCCATGGACCGGTTTTCCCGGTAATCCGTATTTGTT (site CGGAATCCTAC) | 0 |
| CGGAATCCATGGACCGGTTTTCCCGGTAATCCGTATTTGTT (site CGGAATCCTAG) | 0 |
| CGGAATCCATGGACCGGTTTTCCCGGTAATCCGTATTTGTT (site CGGAATCCTAT) | 0 |
| CGGAATCCATGGACCGGTTTTCCCGGTAATCCGTATTTGTT (site CGGAATCCTCA) | 0.00562 |
| CGGAATCCATGGACCGGTTTTCCCGGTAATCCGTATTTGTT (site CGGAATCCTCC) | 0.00652 |
| CGGAATCCATGGACCGGTTTTCCCGGTAATCCGTATTTGTT (site CGGAATCCTGA) | 1.65 |
